One data set deals with T1, h-NK1 receptors (Homo sapiens, UniProt P25103).
T1 construct: expressed in transfected cells; host or cells: CHO cells (permanent expression), crude cell membranes
The experiment in a line: Evaluation of NK1 antagonist transport efficiency to the central nervous system using a h-NK1 receptor binding assay. The following applies: 5 min, brain extract of male SD rats 5 min after i.v. injection of test compound, CHO cell membranes expressing h-NK1, read-out: inhibition rate of 125I-BH-Substance P binding to h-NK1 receptors. On the procedure: A. Evaluation of NK1 Antagonist Transport Efficiency to the Cental Nervous System Using a h-NK1 Receptor Binding Assay
(1) Administration of Test Compound and Extraction of the Compound From Brain
Male SD rats were given an i.v. injection of a solution containing a test compound (1 mg/kg). 5 Min later the animals were anesthetized by ether, bled and perfused through the aorta ascendens with 20 ml of saline. The brain was rapidly removed, weighed and homogenized in 4 vol. ice-cold distilled water by using Polytoron (KINEMATICA). To extract the test compound, 500 μl of the homogenate, 100 μl of methanol, 500 μl of 0.1 N NaOH and 4 ml of ethyl acetate were mixed by shaking for 10 min at room temperature. The organic phase (2.5 ml) was recovered by centrifugation at 3,000 rpm for 10 min, dried and dissolved in dimethyl sulfoxide.
(2) h-NK1 Receptor Binding Assay
(a) Crude CHO Cell Membrane Preparation
CHO cells permanently expressing h-NK1 receptors were harvested and homogenized with a Dounce homogenizer at 4° C. in a buffer (0.25 M sucrose, 25 mM Tris-HCl (pH 7.4), 10 mM MgCl2, 1 mM EDTA, 5 μg/ml p-APMSF). The homogenate was centrifuged (500×g, 10 min), and the pellet was resuspended in the same buffer, homogenized, and centrifuged. The two supernatants were combined and centrifuged (100,000×g, 1 hour). The crude cell membranes thus isolated were resuspended in a buffer (25 MM Tris-HCl (pH 7.4), 10 mM MgCl2, 1 mM EDTA, 5 μg/ml p-APMSF) and stored at −80° C. until use.
(b) ^125I-BH-Substance P Binding to the Prepared Membrane
Cell membranes (6 μg/ml) were incubated with ^125I-BH-Substance P (0.1 nM) with or without the extracted compounds in 0.25 ml of a medium (50 mM Tris-HCl (pH 7.4), 5 mM MnCl2, 20 μg/ml chymrostatin, 40 μg/ml bacitracin, 4 μg/ml leupeptin, 5 μg/ml p-APMSF, 200 μg/ml BSA) at 22° C. for 90 min. At the end of the incubation period, the contents were quickly filtered through a Blue Mat 11740 filter (pretreated with 0.1% polyethylenimine for 3 hours prior to use) by using SKATRON Cell Harvester. The filter was then washed with a washing buffer (50 mM Tris-HCl (pH 7.4), 5 mM MnCl2) . The radioactivity was counted by using an auto gamma counter (Packard RIASTAR 5420A). All data presented are specific binding defined as that displaceable by 3 μM unlabeled Substance P.

Structures can show the parent of a compound that is named as a salt. Where only a bound is given, the exact number is not on record here.

The term inhibition denotes the relative decrease from the control value, in per cent. As a reminder, the melting point is the temperature of the solid-liquid transition.

T1 sequence (P25103 whole entry): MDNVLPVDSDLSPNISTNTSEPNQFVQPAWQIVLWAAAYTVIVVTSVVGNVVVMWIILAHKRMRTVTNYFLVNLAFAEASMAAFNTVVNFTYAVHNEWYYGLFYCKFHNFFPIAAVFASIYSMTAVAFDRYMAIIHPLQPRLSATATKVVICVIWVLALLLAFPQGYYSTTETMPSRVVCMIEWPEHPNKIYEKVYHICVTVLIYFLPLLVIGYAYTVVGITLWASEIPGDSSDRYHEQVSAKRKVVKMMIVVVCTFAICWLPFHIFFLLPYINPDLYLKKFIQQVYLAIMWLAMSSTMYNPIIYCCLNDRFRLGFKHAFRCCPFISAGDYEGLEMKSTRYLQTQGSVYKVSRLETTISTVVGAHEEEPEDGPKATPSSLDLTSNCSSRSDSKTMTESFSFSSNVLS

`Cc1ccc(C[C@@H]2CN(CC#CCN3CCOCC3)CCN2C(=O)c2cc(C(F)(F)F)cc(C(F)(F)F)c2)cc1C.Cl.Cl` [37-(2), (2R)-4-(4-Morpholino-2-butynyl)-1-[3,5-bis (trifluoromethyl)benzoyl]-2-(3,4-dimethylbenzyl) piperazine dihydrochloride] displayed a melting point of 155 to 162 °C. In addition, the inhibition at 1 mg/kg at h-NK1 receptors was greater than 80%.
For `Cc1ccc(C[C@@H]2CN(CCCN3CCOCC3)CCN2C(=O)c2cc(C(F)(F)F)cc(C(F)(F)F)c2)cc1C.Cl.Cl` [53-(1), (2R)-1-[3,5-Bis(trifluoromethyl)benzoyl]-2-(3,4-dimethylbenzyl)-4-(3-morpholinopropyl) piperazine dihydrochloride], in that order: 220 to 230 °C and greater than 80%.
Compound `COCC1CN(CC#CCN2CCN(C(=O)c3cc(C(F)(F)F)cc(C(F)(F)F)c3)[C@H](Cc3ccc(C)c(C)c3)C2)CCO1.Cl.Cl` (stereo partly drawn) [59-(1), (2R)-1-[3,5-Bis(trifluoromethyl)benzoyl]-2-(3,4-dimethylbenzyl)-4-[4-(2-methoxymethylmorpholino)-2-butynyl]piperazine dihydrochloride] returned a melting point of 150 to 165 °C. Besides, the inhibition at 1 mg/kg on h-NK1 receptors is greater than 80%.
Compound `Cl.Cl.O=C(c1cc(C(F)(F)F)cc(C(F)(F)F)c1)N1CCN(C/C=C/CN2CCOCC2)C[C@H]1Cc1ccc2ccccc2c1` [62-(1), (2R)-1-[3,5-Bis(trifluoromethyl)benzoyl]-2-(2-naphthylmethyl)-4-[(E)-4-morpholino-2-butenyl]piperazine dihydrochloride] gave a melting point greater than 230 °C. Also, the inhibition at 1 mg/kg on h-NK1 receptors is greater than 80%.
The like results for `Cl.Cl.O=C(c1cc(C(F)(F)F)cc(C(F)(F)F)c1)N1CCN(CC#CCN2CCSCC2)C[C@H]1Cc1ccc(F)cc1` [84-(1), (2R)-1-[3,5-Bis(trifluoromethyl)benzoyl]-2-(4-fluorobenzyl)-4-(4-thiomorpholino-2-butynyl) piperazine dihydrochloride] were, in that order, 180 °C (dec.) and greater than 80%.
For `CC(=O)c1ccc(CN2CCN(C(=O)c3cc(C(F)(F)F)cc(C(F)(F)F)c3)[C@H](Cc3c[nH]c4ccccc34)C2)cc1.Cl` [Example 7, (2R)-4-(4-acetylbenzyl)-1-[3,5-bis(trifluoromethyl)benzoyl]-2-(1H-indol-3-ylmethyl) piperazine hydrochloride], in that order: 172 °C (dec.) and greater than 80%.
For `Cl.Cl.O=C(c1cc(C(F)(F)F)cc(C(F)(F)F)c1)N1CCN(CC#CCN2CCSCC2)C[C@H]1Cc1c[nH]c2ccccc12` [Example 37-(4), (2R)-4-(4-Thiomorpholino-2-butynyl)-1-[3,5-bis (trifluoromethyl)benzoyl]-2-(1H-indol-3-ylmethyl) piperazine dihydrochloride], in that order: 166 to 170 °C and greater than 80%.
`Cc1ccc(C[C@@H]2CN(CCN3CCSCC3)CCN2C(=O)c2cc(C(F)(F)F)cc(C(F)(F)F)c2)cc1C.Cl.Cl` [Example 37-(8), (2R)-4-(2-Thiomorpholinoethyl)-1-[3,5-bis (trifluoromethyl)benzoyl]-2-(3,4-dimethylbenzyl) piperazine dihydrochloride]: the melting point amounted to 261.5 °C. Moreover, at h-NK1 receptors, the inhibition at 1 mg/kg is greater than 80%.
The like results for `Cc1ccc(C[C@@H]2CN(Cc3cnn(C)c3)CCN2C(=O)c2cc(C(F)(F)F)cc(C(F)(F)F)c2)cc1C.Cl` [Example 51, (2R)-1-[3,5-bis(trifluoromethyl)benzoyl]-2-(3,4-dimethylbenzyl)-4-[(1-methyl-1H-pyrazol-4-yl)methyl]piperazine hydrochloride] were, in that order, 243 to 244 °C and greater than 80%.
The like results for `Cc1ccc(C[C@@H]2CN(CCCCN3CCOCC3)CCN2C(=O)c2cc(C(F)(F)F)cc(C(F)(F)F)c2)cc1C.Cl.Cl` [Example 54, (2R)-1-[3,5-bis(trifluoromethyl)benzoyl]-2-(3,4-dimethylbenzyl)-4-(4-morpholinobutyl) piperazine dihydrochloride] were, in that order, 279 °C and greater than 80%.
Compound `Cc1ccc(C[C@@H]2CN(CC#CCN3CCOCC3C)CCN2C(=O)c2cc(C(F)(F)F)cc(C(F)(F)F)c2)cc1C.Cl.Cl` (stereo partly drawn) [Example 58, (2R)-1-[3,5-bis(trifluoromethyl)benzoyl]-2-(3,4-dimethylbenzyl)-4-[4-(3-methylmorpholino)-2-butynyl]piperazine dihydrochloride] yielded a melting point of 150 to 160 °C. The inhibition at 1 mg/kg on h-NK1 receptors is greater than 80%.
As for `Cc1ccc(C[C@@H]2CN(CC#CCN3CCOCC3(C)C)CCN2C(=O)c2cc(C(F)(F)F)cc(C(F)(F)F)c2)cc1C.Cl.Cl` [Example 59-(3), (2R)-1-[3,5-Bis(trifluoromethyl)benzoyl]-2-(3,4-dimethylbenzyl)-4-[4-(3,3-dimethylmorpholino)-2-butynyl]piperazine dihydrochloride], the melting point lay within 180 to 190 °C. Further, the inhibition at 1 mg/kg on h-NK1 receptors was greater than 80%.
The like results for `COCCN(C)CCN1CCN(C(=O)c2cc(C(F)(F)F)cc(C(F)(F)F)c2)[C@H](Cc2ccc(C)c(C)c2)C1.Cl.Cl` [Example 67-(13), (2R)-1-[3,5-Bis(trifluoromethyl)benzoyl]-2-(3,4-dimethylbenzyl)-4-[2-[N-(2-methoxyethyl) -N-methylamino]ethyl]piperazine dihydrochloride] were, in that order, 222 °C (dec.) and greater than 80%.
The like results for `Cc1ccc(C[C@@H]2CN(C/C=C\CN3CCOCC3)CCN2C(=O)c2cc(C(F)(F)F)cc(C(F)(F)F)c2)cc1C.Cl.Cl` [Example 72, (2R)-1-[3,5-Bis(trifluoromethyl)benzoyl]-2-(3,4-dimethylbenzyl)-4-[(Z)-4-morpholino-2-butenyl]piperazine dihydrochloride] were, in that order, 243 to 246 °C and greater than 80%.
As for `O=C(c1cc(C(F)(F)F)cc(C(F)(F)F)c1)N1CCN(CCCCN2CCOCC2)C[C@H]1Cc1c[nH]c2ccccc12` [Example 73, (2R)-1-[3,5-bis(trifluoromethyl)benzoyl]-2-(1H-indol-3-ylmethyl)-4-(4-morpholinobutyl) piperazine dihydrochloride], the inhibition at 1 mg/kg on h-NK1 receptors was greater than 80%.
The compound `Cc1ccc(C[C@@H]2CN(CCCCCN3CCOCC3)CCN2C(=O)c2cc(C(F)(F)F)cc(C(F)(F)F)c2)cc1C.Cl.Cl` [Example 74, (2R)-1-[3,5-Bis(trifluoromethyl)benzoyl]-2-(3,4-dimethylbenzyl)-4-(5-morpholinopentyl) piperazine dihydrochloride] had a melting point of 235 to 238 °C. Besides, the inhibition at 1 mg/kg at h-NK1 receptors is greater than 80%.
Take `Cc1ccc(C[C@@H]2CN(C/C=C/CN3CCOCC3)CCN2C(=O)c2cc(C(F)(F)F)cc(C(F)(F)F)c2)cc1C.Cl.Cl` [Example 75, (2R)-1-[3,5-bis(trifluoromethyl)benzoyl]-2-(3,4-dimethylbenzyl)-4-[(E)-4-morpholino-2-butenyl]piperazine dihydrochloride]: the melting point was 236 to 242 °C. The inhibition at 1 mg/kg on h-NK1 receptors is greater than 80%.
For `Cl.Cl.O=C(c1cc(C(F)(F)F)cc(C(F)(F)F)c1)N1CCN(C/C=C/CN2CCOCC2)C[C@H]1Cc1c[nH]c2ccccc12` [Example 76, (2R)-1-[3,5-Bis(trifluoromethyl)benzoyl]-2-(1H-indol-3-ylmethyl)-4-[(E)-4-morpholino-2-butenyl]piperazine dihydrochloride], in that order: 123 to 128 °C and greater than 80%.
Consider `Cc1ccc(C[C@@H]2CN(CCCN3C[C@@H](C)O[C@@H](C)C3)CCN2C(=O)c2cc(C(F)(F)F)cc(C(F)(F)F)c2)cc1C` [Example 81, (2R)-1-[3,5-Bis(trifluoromethyl)benzoyl]-2-(3,4-dimethylbenzyl)-4-[3-(cis-2,6-dimethylmorpholino)propyl]piperazine dihydrochloride], for which, at h-NK1 receptors, the inhibition at 1 mg/kg was greater than 80%.

For the origin of these results see patent publication US20020010182A1, “Piperazine derivatives as tachykinin antagonists” (FUJISAWA PHARMACEUTICAL CO., LTD., priority 1995, published 2002).
